Results published in paper doi:10.1101/471615v1 (biorxiv, 2018).

What was measured:
[1] = target: BMPR1B (Homo sapiens, UniProt O00238); assay: biochemical
[2] = target: T1, nemo-like kinase, NLK (Homo sapiens, UniProt Q9UBE8); assay: biochemical
T1 sequence (Q9UBE8 1-527): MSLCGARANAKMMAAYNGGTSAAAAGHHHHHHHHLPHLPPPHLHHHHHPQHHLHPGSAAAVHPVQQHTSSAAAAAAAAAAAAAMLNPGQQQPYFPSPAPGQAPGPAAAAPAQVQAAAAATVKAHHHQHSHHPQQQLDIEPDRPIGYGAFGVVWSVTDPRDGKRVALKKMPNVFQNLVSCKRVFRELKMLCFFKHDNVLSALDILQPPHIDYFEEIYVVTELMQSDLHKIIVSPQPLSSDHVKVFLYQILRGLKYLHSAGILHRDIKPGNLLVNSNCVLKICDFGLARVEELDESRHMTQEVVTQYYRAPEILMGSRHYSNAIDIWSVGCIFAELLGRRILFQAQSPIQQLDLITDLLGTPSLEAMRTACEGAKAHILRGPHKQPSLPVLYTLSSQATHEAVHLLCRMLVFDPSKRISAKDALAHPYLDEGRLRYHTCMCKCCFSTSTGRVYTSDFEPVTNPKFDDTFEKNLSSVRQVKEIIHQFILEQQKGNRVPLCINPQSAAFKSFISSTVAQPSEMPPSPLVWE

BMPR1B, sequence (O00238 whole entry): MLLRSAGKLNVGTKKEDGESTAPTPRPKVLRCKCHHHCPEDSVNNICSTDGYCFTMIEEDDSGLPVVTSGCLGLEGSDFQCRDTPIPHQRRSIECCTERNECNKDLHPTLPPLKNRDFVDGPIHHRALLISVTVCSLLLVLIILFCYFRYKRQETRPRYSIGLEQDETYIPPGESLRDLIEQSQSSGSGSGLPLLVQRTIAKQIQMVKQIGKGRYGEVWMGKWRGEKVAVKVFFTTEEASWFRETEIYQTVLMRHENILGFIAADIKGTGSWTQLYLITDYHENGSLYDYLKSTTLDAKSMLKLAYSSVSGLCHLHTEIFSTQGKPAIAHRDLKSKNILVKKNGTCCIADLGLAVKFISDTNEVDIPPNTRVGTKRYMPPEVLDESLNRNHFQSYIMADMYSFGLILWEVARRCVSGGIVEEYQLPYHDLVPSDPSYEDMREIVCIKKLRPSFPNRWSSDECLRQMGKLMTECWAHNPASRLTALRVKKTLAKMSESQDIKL

- Kd [1]: > 10 µM
- Kd [2]: > 10 µM
Compound: COc1cc(N(C)c2ccnc3ccc(C(F)(F)F)cc23)cc(OC)c1OC [compound 21, negative control (21)]
